Data taken from patent publication US8999970B2, “Administration of an anti-obesity compound to individuals with renal impairment” (Arena Pharmaceuticals, Inc., priority 2010, dated 2015).

Experiments:
[1] = Preclinical toxicology: M1 and M5 pharmacokinetics after oral administration of lorcaserin, 52 wk, mice
[2] = Adverse events in the renal impairment clinical study APD356-016; assay type: in vivo, human
Text: The incidence of adverse events was not related to severity of renal impairment. Events considered possibly or probably related to lorcaserin included 1 event each of abdominal pain (moderate group), diarrhea (moderate group), dyspepsia (mild group), stomach discomfort (mild group), and worsening renal impairment (moderate group). Two events of dizziness (1 in severe group, one in ESRD group) and 3 events of headache (2 normal, 1 moderate group) were considered possibly/probably related to study drug. A summary of the Treatment Emergent Adverse Events in the APD356-016 study by renal impairment groups and relationship to study drug are listed in Table 11.

[3] = Pivotal phase 3 clinical trial program (weight loss); assay type: in vivo, human
Text: (§1) In December 2009, Arena Pharmaceuticals submitted a New Drug Application, or NDA, for lorcaserin to the FDA. The NDA submission is based on an extensive data package from lorcaserin's clinical development program that includes 18 clinical trials totaling 8,576 patients. […] About two-thirds of patients achieved at least 5% weight loss and over one-third achieved at least 10% weight loss. On average, patients lost 17 to 18 pounds or about 8% of their weight. Secondary endpoints, including body composition, lipids, cardiovascular risk factors and glycemic parameters improved compared to placebo. In addition, heart rate and blood pressure went down. […] Lorcaserin improved quality of life, and there was no signal for depression or suicidal ideation. The only adverse event that exceeded the placebo rate by 5% was generally mild or moderate, transient headache. Based on a normal BMI of 25, patients in the first phase 3 trial lost about one-third of their excess body weight. The average weight loss was 35 pounds or 16% of body weight for the top quartile of patients in the second phase 3 trial.
as §1, with “Heart” for “In addition, heart”

[4] = lorcaserin 25 mg/kg/day oral, F
[5] = lorcaserin 25 mg/kg/day oral, M
[6] = lorcaserin 50 mg/kg/day oral, F
[7] = lorcaserin 50 mg/kg/day oral, M
[8] = phase 3 program, treated for up to two years

Compound: C[C@H]1CN(C(=O)O[C@@H]2O[C@H](C(=O)O)[C@@H](O)[C@H](O)[C@H]2O)CCc2ccc(Cl)cc21 [Compound M5, N-carbamoyl glucuronide of lorcaserin]
- AUC0-inf ([1]; lorcaserin 5 mg/kg/day oral, F): 201 ng·h/mL
- AUClast ([1]; lorcaserin 5 mg/kg/day oral, F): 184 ng·h/mL
- Cmax ([1]; lorcaserin 5 mg/kg/day oral, F): 100 ng/mL
- tmax ([1]; lorcaserin 5 mg/kg/day oral, F): 30 min
- AUC0-inf ([1]; lorcaserin 5 mg/kg/day oral, M): 178 ng·h/mL
- AUClast ([1]; lorcaserin 5 mg/kg/day oral, M): 134 ng·h/mL
- Cmax ([1]; lorcaserin 5 mg/kg/day oral, M): 98.3 ng/mL
- tmax ([1]; lorcaserin 5 mg/kg/day oral, M): 30 min
- AUClast [1, 4]: 1210 ng·h/mL
- Cmax [1, 4]: 431 ng/mL
- tmax [1, 4]: 30 min
- AUClast [1, 5]: 1840 ng·h/mL
- Cmax [1, 5]: 590 ng/mL
- tmax [1, 5]: 30 min
- AUC0-inf [1, 6]: 3260 ng·h/mL
- AUClast [1, 6]: 3230 ng·h/mL
- Cmax [1, 6]: 824 ng/mL
- tmax [1, 6]: 30 min
- AUC0-inf [1, 7]: 3470 ng·h/mL
- AUClast [1, 7]: 3420 ng·h/mL
- Cmax [1, 7]: 1000 ng/mL
- tmax [1, 7]: 30 min

Compound: C[C@H]1CN(S(=O)(=O)O)CCc2ccc(Cl)cc21 [Compound M1, lorcaserin sulfamate]
- AUC0-inf ([1]; lorcaserin 5 mg/kg/day oral, F): 75200 ng·h/mL
- AUClast ([1]; lorcaserin 5 mg/kg/day oral, F): 74400 ng·h/mL
- Cmax ([1]; lorcaserin 5 mg/kg/day oral, F): 14400 ng/mL
- tmax ([1]; lorcaserin 5 mg/kg/day oral, F): 30 min
- AUC0-inf ([1]; lorcaserin 5 mg/kg/day oral, M): 61200 ng·h/mL
- AUClast ([1]; lorcaserin 5 mg/kg/day oral, M): 59700 ng·h/mL
- Cmax ([1]; lorcaserin 5 mg/kg/day oral, M): 10800 ng/mL
- tmax ([1]; lorcaserin 5 mg/kg/day oral, M): 30 min
- AUC0-inf [1, 4]: 221000 ng·h/mL
- AUClast [1, 4]: 217000 ng·h/mL
- Cmax [1, 4]: 39800 ng/mL
- tmax [1, 4]: 30 min
- AUClast [1, 5]: 223000 ng·h/mL
- Cmax [1, 5]: 25400 ng/mL
- tmax [1, 5]: 30 min
- AUC0-inf [1, 6]: 356000 ng·h/mL
- AUClast [1, 6]: 345000 ng·h/mL
- Cmax [1, 6]: 49100 ng/mL
- tmax [1, 6]: 30 min
- AUC0-inf [1, 7]: 319000 ng·h/mL
- AUClast [1, 7]: 308000 ng·h/mL
- Cmax [1, 7]: 42700 ng/mL
- tmax [1, 7]: 30 min

Compound: C[C@H]1CNCCc2ccc(Cl)cc21 [Lorcaserin, (R)-8-chloro-1-methyl-2,3,4,5-tetrahydro-1H-3-benzazepine]
- Events of dizziness possibly/probably related ([2]; 1 severe group, one ESRD group): Two
- Events of headache possibly/probably related ([2]; 2 normal, 1 moderate group): 3
- Number (%) of Subjects Reporting AEs ([2]; End Stage (N = 8)): 1 (12.5%)
- Number (%) of Subjects Reporting AEs By Maximum Intensity: Mild ([2]; End Stage (N = 8)): 1 (12.5%)
- Number (%) of Subjects Reporting AEs By Maximum Intensity: Moderate ([2]; End Stage (N = 8)): 0 (0.0%)
- Number (%) of Subjects Reporting AEs By Maximum Intensity: Severe ([2]; End Stage (N = 8)): 0 (0.0%)
- Number (%) of Subjects Reporting AEs By Most Direct Relationship to Study Treatment: Not Related ([2]; End Stage (N = 8)): 1 (12.5%)
- Number (%) of Subjects Reporting AEs By Most Direct Relationship to Study Treatment: Possible ([2]; End Stage (N = 8)): 0 (0.0%)
- Number (%) of Subjects Reporting AEs By Most Direct Relationship to Study Treatment: Probable ([2]; End Stage (N = 8)): 0 (0.0%)
- Number (%) of Subjects Reporting AEs By Most Direct Relationship to Study Treatment: Unlikely ([2]; End Stage (N = 8)): 0 (0.0%)
- Number of AEs Reported ([2]; End Stage (N = 8)): 1
- Number (%) of Subjects Reporting AEs ([2]; Mild (N = 8)): 2 (25.0%)
- Number (%) of Subjects Reporting AEs By Maximum Intensity: Mild ([2]; Mild (N = 8)): 2 (25.0%)
- Number (%) of Subjects Reporting AEs By Maximum Intensity: Moderate ([2]; Mild (N = 8)): 0 (0.0%)
- Number (%) of Subjects Reporting AEs By Maximum Intensity: Severe ([2]; Mild (N = 8)): 0 (0.0%)
- Number (%) of Subjects Reporting AEs By Most Direct Relationship to Study Treatment: Not Related ([2]; Mild (N = 8)): 0 (0.0%)
- Number (%) of Subjects Reporting AEs By Most Direct Relationship to Study Treatment: Possible ([2]; Mild (N = 8)): 1 (12.5%)
- Number (%) of Subjects Reporting AEs By Most Direct Relationship to Study Treatment: Probable ([2]; Mild (N = 8)): 1 (12.5%)
- Number (%) of Subjects Reporting AEs By Most Direct Relationship to Study Treatment: Unlikely ([2]; Mild (N = 8)): 0 (0.0%)
- Number of AEs Reported ([2]; Mild (N = 8)): 3
- Number (%) of Subjects Reporting AEs ([2]; Moderate (N = 8)): 5 (62.5%)
- Number (%) of Subjects Reporting AEs By Maximum Intensity: Mild ([2]; Moderate (N = 8)): 4 (50.0%)
- Number (%) of Subjects Reporting AEs By Maximum Intensity: Moderate ([2]; Moderate (N = 8)): 1 (12.5%)
- Number (%) of Subjects Reporting AEs By Maximum Intensity: Severe ([2]; Moderate (N = 8)): 0 (0.0%)
- Number (%) of Subjects Reporting AEs By Most Direct Relationship to Study Treatment: Not Related ([2]; Moderate (N = 8)): 1 (12.5%)
- Number (%) of Subjects Reporting AEs By Most Direct Relationship to Study Treatment: Possible ([2]; Moderate (N = 8)): 3 (37.5%)
- Number (%) of Subjects Reporting AEs By Most Direct Relationship to Study Treatment: Probable ([2]; Moderate (N = 8)): 0 (0.0%)
- Number (%) of Subjects Reporting AEs By Most Direct Relationship to Study Treatment: Unlikely ([2]; Moderate (N = 8)): 1 (12.5%)
- Number of AEs Reported ([2]; Moderate (N = 8)): 9
- Number (%) of Subjects Reporting AEs ([2]; Normal (N = 8)): 4 (50.0%)
- Number (%) of Subjects Reporting AEs By Maximum Intensity: Mild ([2]; Normal (N = 8)): 4 (50.0%)
- Number (%) of Subjects Reporting AEs By Maximum Intensity: Moderate ([2]; Normal (N = 8)): 0 (0.0%)
- Number (%) of Subjects Reporting AEs By Maximum Intensity: Severe ([2]; Normal (N = 8)): 0 (0.0%)
- Number (%) of Subjects Reporting AEs By Most Direct Relationship to Study Treatment: Not Related ([2]; Normal (N = 8)): 0 (0.0%)
- Number (%) of Subjects Reporting AEs By Most Direct Relationship to Study Treatment: Possible ([2]; Normal (N = 8)): 1 (12.5%)
- Number (%) of Subjects Reporting AEs By Most Direct Relationship to Study Treatment: Probable ([2]; Normal (N = 8)): 1 (12.5%)
- Number (%) of Subjects Reporting AEs By Most Direct Relationship to Study Treatment: Unlikely ([2]; Normal (N = 8)): 2 (25.0%)
- Number of AEs Reported ([2]; Normal (N = 8)): 4
- Number (%) of Subjects Reporting AEs ([2]; Severe (N = 8)): 3 (37.5%)
- Number (%) of Subjects Reporting AEs By Maximum Intensity: Mild ([2]; Severe (N = 8)): 3 (37.5%)
- Number (%) of Subjects Reporting AEs By Maximum Intensity: Moderate ([2]; Severe (N = 8)): 0 (0.0%)
- Number (%) of Subjects Reporting AEs By Maximum Intensity: Severe ([2]; Severe (N = 8)): 0 (0.0%)
- Number (%) of Subjects Reporting AEs By Most Direct Relationship to Study Treatment: Not Related ([2]; Severe (N = 8)): 0 (0.0%)
- Number (%) of Subjects Reporting AEs By Most Direct Relationship to Study Treatment: Possible ([2]; Severe (N = 8)): 1 (12.5%)
- Number (%) of Subjects Reporting AEs By Most Direct Relationship to Study Treatment: Probable ([2]; Severe (N = 8)): 0 (0.0%)
- Number (%) of Subjects Reporting AEs By Most Direct Relationship to Study Treatment: Unlikely ([2]; Severe (N = 8)): 2 (25.0%)
- Number of AEs Reported ([2]; Severe (N = 8)): 4
- Relation of incidence of adverse events to severity of renal impairment ([2]; human, in vivo): not related
- Events of dyspepsia possibly or probably related ([2]; mild group): 1
- Events of stomach discomfort possibly or probably related ([2]; mild group): 1
- Events of abdominal pain possibly or probably related ([2]; moderate group): 1
- Events of diarrhea possibly or probably related ([2]; moderate group): 1
- Events of worsening renal impairment possibly or probably related ([2]; moderate group): 1
- Excess body weight lost ([3]; first phase 3 trial, based on a normal BMI of 25): about one-third
- Average weight lost, of their weight ([3]; phase 3 program): about 8%
- Risk of cardiac valvulopathy ([3]; phase 3 program): did not increase the risk
- Patients who achieved at least 5% weight loss [3, 8]: About two-thirds
- Patients who achieved at least 10% weight loss [3, 8]: over one-third
- Average weight loss, top quartile of patients ([3]; second phase 3 trial): 35 pounds
- Average weight loss, top quartile of patients, of body weight ([3]; second phase 3 trial): 16%
